# Test results from ChEMBL document CHEMBL5653595 (J Biol Chem, 2003).
# pIC50: −log10 of the molar value. Calls of active or inactive are those of the source. No cut-off for these calls is given here.
# Key:
# [1] = molecular target: Mitogen-activated protein kinase 1 (Homo sapiens) (UniProt P28482); assay: Inhibition of recombinant human ERK2 at 100 uM
# THP-1 [2] = assay: Antiinflammatory activity against LPS-induced human THP-1 cells assessed as reduction in IL-8 cytokine level preincubated for 1 hr followed by LPS-stimulation and measured after 6 hrs by enzyme immunoassay; assay type: functional, cell-based
# [3] = Total clearance in BALB/c mouse at 2 mg/kg, iv measured upto 8 hrs by LC-MS-MS analysis; assay type: ADME, organism-based; details: in vivo
# [4] = molecular target: MAP kinase-activated protein kinase 2 (Homo sapiens) (UniProt P49137); assay: Inhibition of recombinant human MAPKAPK2 at 100 uM
# [5] = molecular target: Receptor tyrosine-protein kinase erbB-2 (Homo sapiens) (UniProt P04626); assay: Inhibition of recombinant human Her2 at 100 uM
# Mus musculus [6] = assay: Antiinflammatory activity against LPS-induced BALB/c mouse assessed as reduction in TNFalpha cytokine level at 100 mg/kg, po pretreated for 1 hr followed by LPS-stimulation and measured after 90mins by enzyme immunoassay; assay type: functional; design: scale not given: the % may be the effect or the level left; details: time 150 min, 2.5 h
# [7] = molecular target: Signal transducer and activator of transcription 3 (Homo sapiens) (UniProt P40763); assay: Inhibition of EGF-stimulated STAT3 phosphorylation in human NCI-H292 cells at 100 uM pre incubated for 60 mins followed by […] stimulation for 5 mins by immunoblot analysis; assay type: cell-based; details: time 65.0 min
# [8] = Tmax in BALB/c mouse at 10 mg/kg, po measured upto 8 hrs by LC-MS-MS analysis; assay type: ADME, organism-based; details: in vivo
# [9] = molecular target: MAP kinase-activated protein kinase 2 (Homo sapiens) (UniProt P49137); assay: Inhibition of LPS-stimulated MAPKAPK2 activation in human THP-1 cells at 100 uM using [33P]ATP as substrate pre incubated for 60 mins followed by LPS-stimulation for 30 mins; assay type: cell-based; details: time 90.0 min
# [10] = molecular target: T1, Inhibitor of nuclear factor kappa-B kinase subunit epsilon (Homo sapiens) (UniProt Q14164); assay: Inhibition of GST-tagged IKKE (unknown origin) expressed in High five cells using LDDRHDSGLDSMKDEEY as substrate incubated for 5 mins in presence of [gamma33P]ATP by liquid scintillation counter analysis
# T1 sequence (whole entry): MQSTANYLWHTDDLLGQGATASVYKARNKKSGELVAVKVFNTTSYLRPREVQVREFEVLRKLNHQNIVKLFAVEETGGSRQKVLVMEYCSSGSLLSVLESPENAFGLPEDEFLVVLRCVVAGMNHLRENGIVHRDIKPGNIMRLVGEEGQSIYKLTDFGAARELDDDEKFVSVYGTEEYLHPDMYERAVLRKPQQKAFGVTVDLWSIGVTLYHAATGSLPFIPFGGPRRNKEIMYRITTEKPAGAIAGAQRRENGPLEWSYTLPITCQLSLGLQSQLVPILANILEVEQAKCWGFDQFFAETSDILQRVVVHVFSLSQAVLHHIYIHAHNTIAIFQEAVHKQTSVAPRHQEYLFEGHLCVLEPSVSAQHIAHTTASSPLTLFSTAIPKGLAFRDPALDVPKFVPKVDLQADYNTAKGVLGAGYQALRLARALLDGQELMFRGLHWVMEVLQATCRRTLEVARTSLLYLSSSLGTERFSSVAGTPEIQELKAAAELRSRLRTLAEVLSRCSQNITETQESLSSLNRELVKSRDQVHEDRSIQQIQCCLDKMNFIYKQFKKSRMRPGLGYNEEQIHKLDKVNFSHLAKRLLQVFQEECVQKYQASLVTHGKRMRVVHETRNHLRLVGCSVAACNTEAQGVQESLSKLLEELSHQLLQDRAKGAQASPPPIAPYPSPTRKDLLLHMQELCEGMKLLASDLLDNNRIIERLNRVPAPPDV
# [11] = molecular target: Mitogen-activated protein kinase 14 (Homo sapiens) (UniProt Q16539); assay: Inhibition of recombinant human P38alpha at 100 uM
# [12] = molecular target: Insulin-like growth factor 1 receptor (Homo sapiens) (UniProt P08069); assay: Inhibition of recombinant human IGF1R at 100 uM
# Homo sapiens = organism: Homo sapiens; assay: Inhibition of recombinant human MAPK at 100 uM
# [13] = molecular target: T2, Protein kinase C zeta type (Homo sapiens) (UniProt Q05513); assay: Inhibition of recombinant human PKCzeta at 100 uM
# T2 sequence (whole entry): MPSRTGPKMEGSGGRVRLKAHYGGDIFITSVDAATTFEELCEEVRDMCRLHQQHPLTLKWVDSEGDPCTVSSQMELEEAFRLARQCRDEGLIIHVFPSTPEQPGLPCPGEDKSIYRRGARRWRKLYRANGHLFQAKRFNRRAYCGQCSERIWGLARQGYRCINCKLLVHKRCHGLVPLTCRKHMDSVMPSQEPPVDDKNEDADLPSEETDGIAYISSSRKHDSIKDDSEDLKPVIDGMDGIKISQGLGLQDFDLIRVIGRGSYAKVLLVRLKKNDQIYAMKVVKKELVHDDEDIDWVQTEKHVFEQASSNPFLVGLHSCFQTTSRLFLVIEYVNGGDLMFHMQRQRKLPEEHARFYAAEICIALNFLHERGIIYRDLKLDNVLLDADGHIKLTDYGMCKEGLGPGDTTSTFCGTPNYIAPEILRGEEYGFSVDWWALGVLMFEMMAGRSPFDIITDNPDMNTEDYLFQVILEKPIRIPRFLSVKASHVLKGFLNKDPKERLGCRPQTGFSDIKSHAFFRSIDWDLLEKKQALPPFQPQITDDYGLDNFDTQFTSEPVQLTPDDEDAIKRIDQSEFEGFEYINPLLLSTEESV
# THP-1 [14] = assay: Antiinflammatory activity against LPS-induced human THP-1 cells assessed as reduction in IL-6 cytokine level preincubated for 1 hr followed by LPS-stimulation and measured after 24 hrs by enzyme immunoassay; assay type: functional, cell-based
# [15] = Oral bioavailability in BALB/c mouse at 10 mg/kg measured upto 8 hrs by LC-MS-MS analysis; assay type: ADME, organism-based; details: in vivo
# Mus musculus [16] = assay: Antiinflammatory activity against LPS-induced BALB/c mouse assessed as reduction in TNFalpha cytokine level at 10 mg/kg, po pretreated for 1 hr followed by LPS-stimulation and measured after 90mins by enzyme immunoassay; assay type: functional; design: scale not given: the % may be the effect or the level left; details: time 150 min, 2.5 h
# THP-1 [17] = assay: Cytotoxicity against human THP-1 cells by trypan blue exclusion assay; assay type: toxicity, cell-based
# [18] = molecular target: Tyrosine-protein kinase Lck (Homo sapiens) (UniProt P06239); assay: Inhibition of recombinant human LCK at 100 uM
# [19] = molecular target: T3, Tyrosine-protein kinase ITK/TSK (Homo sapiens) (UniProt Q08881); assay: Inhibition of recombinant human EMT at 100 uM
# T3 sequence (whole entry): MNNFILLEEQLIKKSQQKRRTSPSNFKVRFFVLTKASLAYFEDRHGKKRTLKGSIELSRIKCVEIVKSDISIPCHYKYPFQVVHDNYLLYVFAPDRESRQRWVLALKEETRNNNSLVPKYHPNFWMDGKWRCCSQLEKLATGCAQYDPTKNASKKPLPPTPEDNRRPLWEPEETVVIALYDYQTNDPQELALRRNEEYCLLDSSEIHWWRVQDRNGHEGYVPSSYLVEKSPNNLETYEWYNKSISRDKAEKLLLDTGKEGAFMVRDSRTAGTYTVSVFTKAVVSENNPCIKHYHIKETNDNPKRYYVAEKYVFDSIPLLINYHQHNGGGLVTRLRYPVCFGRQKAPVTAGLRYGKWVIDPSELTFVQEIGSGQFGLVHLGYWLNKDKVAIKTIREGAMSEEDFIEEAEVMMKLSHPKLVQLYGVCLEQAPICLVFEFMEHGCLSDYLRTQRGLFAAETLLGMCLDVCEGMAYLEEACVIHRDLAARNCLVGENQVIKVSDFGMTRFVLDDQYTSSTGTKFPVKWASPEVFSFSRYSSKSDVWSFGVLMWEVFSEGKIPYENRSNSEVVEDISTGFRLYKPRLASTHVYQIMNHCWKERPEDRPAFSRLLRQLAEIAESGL
# Mus musculus [20] = assay: Antiinflammatory activity against LPS-induced po dosed BALB/c mouse assessed as reduction in TNFalpha cytokine level pretreated for 1 hr followed by LPS-stimulation and measured after 90mins by enzyme immunoassay; assay type: functional, organism-based; details: dose 1-100 mg/kg, time 150.0 min
# [21] = Half life in BALB/c mouse at 2 mg/kg, iv measured upto 8 hrs by LC-MS-MS analysis; assay type: ADME, organism-based; details: in vivo
# [22] = Cmax in BALB/c mouse at 10 mg/kg, po measured upto 8 hrs by LC-MS-MS analysis; assay type: ADME, organism-based; details: in vivo
# THP-1 [23] = assay: Antiinflammatory activity against LPS-induced human THP-1 cells assessed as reduction in TNFalpha cytokine level preincubated for 1 hr followed by LPS-stimulation and measured after 6 hrs by enzyme immunoassay; assay type: functional, cell-based
# [24] = molecular target: Epidermal growth factor receptor (Homo sapiens) (UniProt P00533); assay: Inhibition of recombinant human Her1 at 100 uM
# [25] = Aqueous solubility of compound; assay type: physicochemical; details: buffer
# [26] = molecular target: T4, Tyrosine-protein kinase JAK3 (Homo sapiens) (UniProt P52333); assay: Inhibition of recombinant human JAK3 at 100 uM
# T4 sequence (whole entry): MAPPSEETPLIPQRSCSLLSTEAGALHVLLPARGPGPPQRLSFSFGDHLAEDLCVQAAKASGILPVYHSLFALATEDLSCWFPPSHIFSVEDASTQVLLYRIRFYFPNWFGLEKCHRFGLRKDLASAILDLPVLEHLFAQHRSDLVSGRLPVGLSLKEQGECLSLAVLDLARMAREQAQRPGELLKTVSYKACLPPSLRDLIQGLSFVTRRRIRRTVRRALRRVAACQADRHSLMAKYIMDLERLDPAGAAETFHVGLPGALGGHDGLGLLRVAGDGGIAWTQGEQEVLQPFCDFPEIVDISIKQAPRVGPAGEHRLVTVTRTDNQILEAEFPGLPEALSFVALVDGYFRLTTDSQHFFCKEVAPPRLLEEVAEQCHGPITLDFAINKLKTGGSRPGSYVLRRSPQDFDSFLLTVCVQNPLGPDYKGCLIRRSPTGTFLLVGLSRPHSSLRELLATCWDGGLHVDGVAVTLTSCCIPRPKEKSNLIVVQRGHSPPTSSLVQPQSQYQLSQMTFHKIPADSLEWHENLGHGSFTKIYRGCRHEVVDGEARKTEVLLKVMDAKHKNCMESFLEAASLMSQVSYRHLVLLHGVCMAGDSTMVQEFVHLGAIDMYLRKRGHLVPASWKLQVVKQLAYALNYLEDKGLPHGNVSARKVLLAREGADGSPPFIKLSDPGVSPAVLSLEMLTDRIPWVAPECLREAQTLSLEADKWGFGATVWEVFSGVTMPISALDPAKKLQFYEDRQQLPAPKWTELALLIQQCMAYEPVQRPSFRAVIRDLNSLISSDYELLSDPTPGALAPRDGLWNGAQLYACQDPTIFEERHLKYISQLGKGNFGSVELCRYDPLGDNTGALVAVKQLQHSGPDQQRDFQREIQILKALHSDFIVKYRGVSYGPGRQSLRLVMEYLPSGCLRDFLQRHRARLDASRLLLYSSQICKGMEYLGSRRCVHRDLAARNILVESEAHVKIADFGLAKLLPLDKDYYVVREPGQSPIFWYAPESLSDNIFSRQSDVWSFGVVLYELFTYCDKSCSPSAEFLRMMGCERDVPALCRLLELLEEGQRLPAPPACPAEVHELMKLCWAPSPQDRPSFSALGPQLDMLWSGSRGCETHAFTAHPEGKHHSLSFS
# [27] = molecular target: Protein kinase C alpha type (Homo sapiens) (UniProt P17252); assay: Inhibition of recombinant human PKCalpha at 100 uM
# THP-1 [28] = assay: Antiinflammatory activity against LPS-induced human THP-1 cells assessed as reduction in IL-1beta cytokine level preincubated for 1 hr followed by LPS-stimulation and measured after 6 hrs by enzyme immunoassay; assay type: functional, cell-based
# [29] = Volume of distribution at steady state in BALB/c mouse at 2 mg/kg, iv measured upto 8 hrs by LC-MS-MS analysis; assay type: ADME, organism-based; details: in vivo, read-out: Vdss
# Chain of MAP kinase-activated protein kinase 2 (Homo sapiens) (P49137 whole entry, looked up): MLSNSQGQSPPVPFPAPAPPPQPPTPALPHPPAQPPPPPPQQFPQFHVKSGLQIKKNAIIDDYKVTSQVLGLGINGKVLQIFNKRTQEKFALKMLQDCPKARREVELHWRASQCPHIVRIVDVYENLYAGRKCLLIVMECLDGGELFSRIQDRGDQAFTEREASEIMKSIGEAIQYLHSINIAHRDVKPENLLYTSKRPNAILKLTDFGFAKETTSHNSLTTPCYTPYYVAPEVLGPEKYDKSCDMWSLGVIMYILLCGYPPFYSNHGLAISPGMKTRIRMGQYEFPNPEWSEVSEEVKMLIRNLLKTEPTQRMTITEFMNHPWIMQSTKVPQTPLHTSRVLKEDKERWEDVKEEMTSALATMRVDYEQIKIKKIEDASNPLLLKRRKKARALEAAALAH
# Chain of Epidermal growth factor receptor (Homo sapiens) (P00533 whole entry): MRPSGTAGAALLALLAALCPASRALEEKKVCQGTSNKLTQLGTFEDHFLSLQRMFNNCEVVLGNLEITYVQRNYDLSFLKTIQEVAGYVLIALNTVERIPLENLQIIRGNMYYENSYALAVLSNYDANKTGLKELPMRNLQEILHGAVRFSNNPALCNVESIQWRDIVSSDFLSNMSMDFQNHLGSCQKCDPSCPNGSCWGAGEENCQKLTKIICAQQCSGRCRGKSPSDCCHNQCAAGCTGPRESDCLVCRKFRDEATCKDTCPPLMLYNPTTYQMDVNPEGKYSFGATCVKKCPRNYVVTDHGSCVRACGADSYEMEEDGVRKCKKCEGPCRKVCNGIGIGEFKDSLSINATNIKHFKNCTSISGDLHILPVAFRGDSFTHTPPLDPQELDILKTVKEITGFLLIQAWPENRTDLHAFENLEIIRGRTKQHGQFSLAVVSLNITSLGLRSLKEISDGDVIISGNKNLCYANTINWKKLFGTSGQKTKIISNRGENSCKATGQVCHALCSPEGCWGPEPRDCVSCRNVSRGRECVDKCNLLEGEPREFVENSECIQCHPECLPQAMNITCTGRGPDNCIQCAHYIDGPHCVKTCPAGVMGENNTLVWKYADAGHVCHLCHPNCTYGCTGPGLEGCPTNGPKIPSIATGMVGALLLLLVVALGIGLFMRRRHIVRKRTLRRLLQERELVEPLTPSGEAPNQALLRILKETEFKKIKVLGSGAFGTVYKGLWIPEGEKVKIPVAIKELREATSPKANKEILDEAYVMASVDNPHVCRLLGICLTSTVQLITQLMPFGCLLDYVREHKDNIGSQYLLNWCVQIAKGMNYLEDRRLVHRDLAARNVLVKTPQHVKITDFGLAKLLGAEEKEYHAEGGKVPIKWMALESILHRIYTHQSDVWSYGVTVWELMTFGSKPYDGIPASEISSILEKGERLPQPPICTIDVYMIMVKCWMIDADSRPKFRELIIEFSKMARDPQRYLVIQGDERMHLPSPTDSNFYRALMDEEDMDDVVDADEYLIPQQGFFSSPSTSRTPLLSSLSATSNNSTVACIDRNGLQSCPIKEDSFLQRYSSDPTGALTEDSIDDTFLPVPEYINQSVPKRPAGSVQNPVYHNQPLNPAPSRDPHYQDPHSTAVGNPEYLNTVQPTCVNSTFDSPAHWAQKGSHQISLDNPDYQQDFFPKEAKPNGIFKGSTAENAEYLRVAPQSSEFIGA
# Chain of Receptor tyrosine-protein kinase erbB-2 (Homo sapiens) (P04626 whole entry): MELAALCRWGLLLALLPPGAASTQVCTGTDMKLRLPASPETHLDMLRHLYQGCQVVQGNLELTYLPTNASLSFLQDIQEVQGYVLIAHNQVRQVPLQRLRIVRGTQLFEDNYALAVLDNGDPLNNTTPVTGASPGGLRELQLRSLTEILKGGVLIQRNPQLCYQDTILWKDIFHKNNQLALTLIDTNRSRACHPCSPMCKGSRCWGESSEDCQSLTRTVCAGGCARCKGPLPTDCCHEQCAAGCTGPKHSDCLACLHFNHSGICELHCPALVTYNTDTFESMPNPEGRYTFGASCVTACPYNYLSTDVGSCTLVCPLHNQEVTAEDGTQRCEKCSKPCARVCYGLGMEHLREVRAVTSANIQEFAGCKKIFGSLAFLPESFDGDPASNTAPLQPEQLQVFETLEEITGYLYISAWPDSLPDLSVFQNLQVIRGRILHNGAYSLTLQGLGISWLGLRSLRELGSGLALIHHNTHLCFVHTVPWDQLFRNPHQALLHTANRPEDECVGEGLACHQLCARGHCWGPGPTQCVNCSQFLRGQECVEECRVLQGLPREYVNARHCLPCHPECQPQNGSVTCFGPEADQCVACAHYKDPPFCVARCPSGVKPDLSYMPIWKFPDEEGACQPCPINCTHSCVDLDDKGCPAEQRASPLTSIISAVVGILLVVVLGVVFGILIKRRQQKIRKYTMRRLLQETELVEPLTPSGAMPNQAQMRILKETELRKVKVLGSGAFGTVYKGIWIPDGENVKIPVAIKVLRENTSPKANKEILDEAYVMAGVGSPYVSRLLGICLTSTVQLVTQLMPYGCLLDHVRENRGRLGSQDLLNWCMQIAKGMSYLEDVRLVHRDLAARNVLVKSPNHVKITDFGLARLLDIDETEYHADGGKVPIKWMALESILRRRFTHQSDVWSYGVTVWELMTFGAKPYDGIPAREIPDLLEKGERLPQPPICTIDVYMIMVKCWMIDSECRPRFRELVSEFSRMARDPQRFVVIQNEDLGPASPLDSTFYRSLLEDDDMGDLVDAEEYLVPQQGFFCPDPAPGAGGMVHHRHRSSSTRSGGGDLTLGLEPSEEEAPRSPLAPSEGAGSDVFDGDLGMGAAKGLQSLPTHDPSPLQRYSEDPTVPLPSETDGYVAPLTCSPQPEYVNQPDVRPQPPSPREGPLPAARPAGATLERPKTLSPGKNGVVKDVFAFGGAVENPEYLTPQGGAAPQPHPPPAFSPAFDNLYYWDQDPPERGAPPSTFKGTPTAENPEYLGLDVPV
# Chain of Tyrosine-protein kinase Lck (Homo sapiens) (P06239 2-509 limits assumed): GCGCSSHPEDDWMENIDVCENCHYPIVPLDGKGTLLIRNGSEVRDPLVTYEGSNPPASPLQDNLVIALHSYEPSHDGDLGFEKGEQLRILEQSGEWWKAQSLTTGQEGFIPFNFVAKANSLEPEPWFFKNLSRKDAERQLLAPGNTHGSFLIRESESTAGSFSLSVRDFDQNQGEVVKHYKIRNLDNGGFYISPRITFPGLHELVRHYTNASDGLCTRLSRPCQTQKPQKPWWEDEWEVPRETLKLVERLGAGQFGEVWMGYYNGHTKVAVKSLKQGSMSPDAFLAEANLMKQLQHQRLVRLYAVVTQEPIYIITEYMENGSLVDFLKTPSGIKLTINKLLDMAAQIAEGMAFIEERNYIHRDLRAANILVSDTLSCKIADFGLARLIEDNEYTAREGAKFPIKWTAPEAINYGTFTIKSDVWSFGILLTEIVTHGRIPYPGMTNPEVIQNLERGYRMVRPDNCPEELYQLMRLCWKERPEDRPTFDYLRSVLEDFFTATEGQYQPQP
# Chain of Signal transducer and activator of transcription 3 (Homo sapiens) (P40763 whole entry): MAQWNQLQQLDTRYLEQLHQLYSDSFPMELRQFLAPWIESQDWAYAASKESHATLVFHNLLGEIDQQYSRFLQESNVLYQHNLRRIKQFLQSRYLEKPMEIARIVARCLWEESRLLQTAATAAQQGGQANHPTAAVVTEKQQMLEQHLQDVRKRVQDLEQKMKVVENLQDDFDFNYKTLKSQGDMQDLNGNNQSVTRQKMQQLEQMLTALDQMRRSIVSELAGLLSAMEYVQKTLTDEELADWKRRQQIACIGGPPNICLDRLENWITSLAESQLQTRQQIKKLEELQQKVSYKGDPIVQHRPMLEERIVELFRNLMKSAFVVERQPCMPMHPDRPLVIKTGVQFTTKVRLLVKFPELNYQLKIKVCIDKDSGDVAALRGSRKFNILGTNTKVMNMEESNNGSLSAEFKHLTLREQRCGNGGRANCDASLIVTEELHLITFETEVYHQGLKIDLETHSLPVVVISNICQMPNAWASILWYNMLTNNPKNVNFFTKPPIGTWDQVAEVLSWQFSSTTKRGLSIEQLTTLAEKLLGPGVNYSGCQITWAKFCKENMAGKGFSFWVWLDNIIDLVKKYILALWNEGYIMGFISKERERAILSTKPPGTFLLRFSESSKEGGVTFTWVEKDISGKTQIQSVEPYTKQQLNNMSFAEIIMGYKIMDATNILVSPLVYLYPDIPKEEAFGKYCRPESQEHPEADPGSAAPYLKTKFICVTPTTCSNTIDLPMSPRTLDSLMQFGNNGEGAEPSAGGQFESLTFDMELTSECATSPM
compound,measurement,setting,value
Cc1ccc2nc(NCCN)c3ncc(C)n3c2c1 [BMS-345541],inhibition,[1],inactive
same,pIC50,THP-1 [2],6.00
same,clearance,[3],114 mL/min/kg
same,inhibition,[4],inactive
same,inhibition,[5],inactive
same,Activity,Mus musculus [6],100%
same,inhibition,[7],inactive
same,Tmax,[8],0.52 h
same,inhibition,[9],inactive
same,inhibition,[10],inactive
same,inhibition,[11],inactive
same,inhibition,[12],inactive
same,inhibition,Homo sapiens,inactive
same,inhibition,[13],inactive
same,pIC50,THP-1 [14],6.00
same,bioavailability,[15],~100%
same,Activity,Mus musculus [16],50%
same,Activity,THP-1 [17],Non-Toxic
same,inhibition,[18],inactive
same,inhibition,[19],inactive
same,Activity,Mus musculus [20],Dose-Dependent Effect
same,half-life,[21],2.2 h
same,Cmax,[22],1600 nM
same,pIC50,THP-1 [23],6.00
same,inhibition,[24],inactive
same,solubility,[25],Soluble
same,inhibition,[26],inactive
same,inhibition,[27],inactive
same,pIC50,THP-1 [28],6.00
same,Vd,[29],18.5 L/kg
